In US5630978A, “Preparation of biologically active molecules by molecular imprinting” (Yissum Research Development Co. of The Hebrew University of …, priority 1995, dated 1997):

Test system: extracellular matrix (ECM) bound FGF
Test: Release of extracellular matrix (ECM) bound FGF
Assay type: biochemical
Experimental: The polymers were tested according to the method of Vlodavsky [Vlodavsky, I., Bar-Shavit, R., Korner, G., and Foks, Z., Extracellular matrix-bound growth factors, enzymes, and plasma proteins, in Molecular and cellular aspects of basement membrane, Academic Press, 327-343 (1993)]. Release of ECM bound bFGF was low (15%) at the concentration range between 1 and 25 mg/ml for N-acryl-4-hydroxyproline based polymers. Under the same conditions, heparin released about 80% of the ECM bound bFGF at a concentration of 2 to 25 mg/ml.

heparin
released extracellular matrix (ECM) bound FGF: 80% | Release of ECM bound bFGF (concentration of 2 to 25 mg/ml): about 80%
